The text below walks through data of patent US8541588B2, “Sulfonamide derivatives” (Pfizer Limited, priority 2009, dated 2013).

Each structure is given as a SMILES string.

One may read the IC50 as the point on the concentration scale where inhibition reaches its midpoint.

For the experiment, the target named is T1, Nav1.7 (or SCN9A) channel; HEK cells stably transfected with hSCN9A (Homo sapiens, UniProt Q15858).
T1 construct: expressed in transfected cells
Kind of experiment: Nav1.7 block, PatchXpress 7000 automated whole-cell voltage clamp, estimated IC50 (EIC50). In kind it is cell-based. The following applies: estimated IC50; hSCN9A HEK cells, PatchXpress platform; Examples 283-814.

T1 sequence (Q15858 whole entry): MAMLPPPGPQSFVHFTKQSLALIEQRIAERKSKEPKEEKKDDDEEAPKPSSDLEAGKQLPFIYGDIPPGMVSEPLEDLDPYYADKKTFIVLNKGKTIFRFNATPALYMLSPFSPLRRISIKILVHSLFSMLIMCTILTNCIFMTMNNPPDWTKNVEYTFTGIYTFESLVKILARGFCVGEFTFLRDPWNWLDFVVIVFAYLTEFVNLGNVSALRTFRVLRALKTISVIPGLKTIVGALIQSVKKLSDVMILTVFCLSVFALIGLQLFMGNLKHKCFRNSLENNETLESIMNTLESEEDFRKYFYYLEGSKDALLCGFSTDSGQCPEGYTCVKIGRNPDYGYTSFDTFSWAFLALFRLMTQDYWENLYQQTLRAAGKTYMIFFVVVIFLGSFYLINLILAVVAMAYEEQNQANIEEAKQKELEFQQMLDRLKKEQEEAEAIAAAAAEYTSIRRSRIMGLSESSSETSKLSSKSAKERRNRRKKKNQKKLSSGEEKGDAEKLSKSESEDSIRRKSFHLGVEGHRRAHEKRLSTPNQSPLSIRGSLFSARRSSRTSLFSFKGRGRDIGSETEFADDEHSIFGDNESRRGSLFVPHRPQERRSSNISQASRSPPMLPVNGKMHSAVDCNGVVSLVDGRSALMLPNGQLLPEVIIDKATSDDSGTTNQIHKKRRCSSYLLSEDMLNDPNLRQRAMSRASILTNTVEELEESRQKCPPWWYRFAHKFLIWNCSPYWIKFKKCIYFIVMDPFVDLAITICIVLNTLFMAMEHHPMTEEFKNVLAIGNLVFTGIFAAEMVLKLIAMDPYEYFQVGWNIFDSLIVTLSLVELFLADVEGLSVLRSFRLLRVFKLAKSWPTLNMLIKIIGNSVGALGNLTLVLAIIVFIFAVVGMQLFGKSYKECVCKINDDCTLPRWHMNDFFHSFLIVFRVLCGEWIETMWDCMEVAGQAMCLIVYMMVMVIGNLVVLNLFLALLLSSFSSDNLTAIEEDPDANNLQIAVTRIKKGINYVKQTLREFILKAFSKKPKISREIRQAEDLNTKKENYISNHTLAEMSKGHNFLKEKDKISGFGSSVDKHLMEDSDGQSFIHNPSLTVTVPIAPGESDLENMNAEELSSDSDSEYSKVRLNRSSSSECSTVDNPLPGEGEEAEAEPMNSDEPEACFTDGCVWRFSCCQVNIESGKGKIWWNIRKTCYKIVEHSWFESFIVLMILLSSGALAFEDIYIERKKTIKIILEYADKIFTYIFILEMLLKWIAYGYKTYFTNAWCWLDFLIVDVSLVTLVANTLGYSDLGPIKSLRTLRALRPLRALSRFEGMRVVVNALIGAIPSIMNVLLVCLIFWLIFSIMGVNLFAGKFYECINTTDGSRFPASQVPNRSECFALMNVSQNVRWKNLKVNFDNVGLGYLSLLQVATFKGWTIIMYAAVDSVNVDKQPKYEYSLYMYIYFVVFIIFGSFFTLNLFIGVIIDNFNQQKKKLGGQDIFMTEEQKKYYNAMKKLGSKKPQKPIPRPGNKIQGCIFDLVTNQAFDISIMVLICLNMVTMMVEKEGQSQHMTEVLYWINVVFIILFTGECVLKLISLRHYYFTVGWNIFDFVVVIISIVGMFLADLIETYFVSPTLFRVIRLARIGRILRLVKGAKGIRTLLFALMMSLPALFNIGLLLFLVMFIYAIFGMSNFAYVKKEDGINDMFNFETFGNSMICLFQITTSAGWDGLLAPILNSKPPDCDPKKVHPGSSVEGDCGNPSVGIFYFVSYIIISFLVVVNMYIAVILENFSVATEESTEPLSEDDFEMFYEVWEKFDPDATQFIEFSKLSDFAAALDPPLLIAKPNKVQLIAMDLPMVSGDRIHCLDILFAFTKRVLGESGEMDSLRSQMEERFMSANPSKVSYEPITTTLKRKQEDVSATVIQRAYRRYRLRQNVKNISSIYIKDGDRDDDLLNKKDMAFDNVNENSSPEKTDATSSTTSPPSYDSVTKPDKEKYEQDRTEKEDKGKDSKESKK

In the case of `O=S(=O)(Nc1nncs1)c1cc(Cl)c(Oc2ccc(Cl)cc2-c2cn[nH]c2)cc1F` [Example 564, 5-chloro-4-[4-chloro-2-(1H-pyrazol-4-yl)phenoxy]-2-fluoro-N-1,3,4-thiadiazol-2-ylbenzenesulfonamide], the IC50 was 9.2 nM.

As to `Cc1nn(C)c(C)c1Cc1ccc(Oc2ccc(S(=O)(=O)Nc3ccc(F)cn3)cc2C#N)cc1` [Example 565, 3-cyano-N-(5-fluoropyridin-2-yl)-4-{4-[(1,3,5-trimethyl-1H-pyrazol-4-yl)methyl]phenoxy}benzenesulfonamide], the half-inhibitory concentration (IC50) is 54000 nM.

Regarding `N#Cc1cc(S(=O)(=O)Nc2ccc(F)cn2)ccc1Oc1ccc(CN2CCC2)c(F)c1` [Example 566, 4-[4-(azetidin-1-ylmethyl)-3-fluorophenoxy]-3-cyano-N-(5-fluoropyridin-2-yl)benzenesulfonamide], the IC50 is above 30000 nM.

As for `CCc1nnc(C)n1-c1ccc(Oc2ccc(S(=O)(=O)Nc3ccc(F)cn3)cc2C#N)cc1` [Example 568, 3-cyano-4-[4-(3-ethyl-5-methyl-4H-1,2,4-triazol-4-yl)phenoxy]-N-(5-fluoropyridin-2-yl)benzenesulfonamide], the IC50 was above 3000 nM.

For `N#Cc1cc(S(=O)(=O)Nc2ccc(F)cn2)ccc1Oc1ccc(-n2ccnc2)cc1` [Example 569, 3-cyano-N-(5-fluoropyridin-2-yl)-4-[4-(1H-imidazol-1-yl)phenoxy]benzenesulfonamide], the IC50 was above 3000 nM.

For the compound `CCNC(=O)c1ccc(-c2cccc(Oc3ccc(S(=O)(=O)Nc4ccc(F)cn4)cc3C#N)c2)cc1` [Example 570, 3′-(2-cyano-4-{[(5-fluoropyridin-2-yl)amino]sulfonyl}phenoxy)-N-ethylbiphenyl-4-carboxamide], the half-maximal inhibitory concentration (IC50) was 8600 nM.

For the compound `Cc1cc(-c2ccccc2Oc2ccc(S(=O)(=O)Nc3ccc(F)cn3)cc2C#N)sn1` [Example 571, 3-cyano-N-(5-fluoropyridin-2-yl)-4-[2-(3-methylisothiazol-5-yl)phenoxy]benzenesulfonamide], the half-maximal inhibitory concentration (IC50) is 10000 nM.

In the case of `Cc1nc(-c2ccccc2Oc2ccc(S(=O)(=O)Nc3ccc(F)cn3)cc2C#N)cs1` [Example 572, 3-cyano-N-(5-fluoropyridin-2-yl)-4-[2-(2-methyl-1,3-thiazol-4-yl)phenoxy]benzenesulfonamide], the IC50 was above 30000 nM.

For the compound `CN1CCC(c2cccc(Oc3ccc(S(=O)(=O)Nc4ccc(F)cn4)cc3C#N)c2)CC1` [Example 573, 3-cyano-N-(5-fluoropyridin-2-yl)-4-[3-(1-methylpiperidin-4-yl)phenoxy]benzenesulfonamide], the IC50 is 7300 nM.

Turning to `Cc1nc(-c2cccc(Oc3ccc(S(=O)(=O)Nc4ccc(F)cn4)cc3C#N)c2)no1` [Example 574, 3-cyano-N-(5-fluoropyridin-2-yl)-4-[3-(5-methyl-1,2,4-oxadiazol-3-yl)phenoxy]benzenesulfonamide], the IC50 was above 3000 nM.

Consider `COc1cc(Oc2ccc(S(=O)(=O)Nc3ccc(F)cn3)cc2C#N)ccc1-n1cnc(C)c1` [Example 575, 3-cyano-N-(5-fluoropyridin-2-yl)-4-[3-methoxy-4-(4-methyl-1H-imidazol-1-yl)phenoxy]benzenesulfonamide], for which the concentration for half-maximal inhibition (IC50) was above 30000 nM.

As to `Cc1nnc(-c2ccc(Oc3ccc(S(=O)(=O)Nc4ccc(F)cn4)cc3C#N)cc2)o1` [Example 576, 3-cyano-N-(5-fluoropyridin-2-yl)-4-[4-(5-methyl-1,3,4-oxadiazol-2-yl)phenoxy]benzenesulfonamide], the half-inhibitory concentration (IC50) is above 3000 nM.

`Cc1cnsc1-c1ccccc1Oc1ccc(S(=O)(=O)Nc2ccc(F)cn2)cc1C#N` [Example 577, 3-cyano-N-(5-fluoropyridin-2-yl)-4-[2-(4-methylisothiazol-5-yl)phenoxy]benzenesulfonamide]: the concentration for half-maximal inhibition (IC50) is 11000 nM.

As for `COc1cc(Oc2ccc(S(=O)(=O)Nc3ccc(F)cn3)cc2C#N)ccc1-n1ccnc1C` [Example 578, 3-cyano-N-(5-fluoropyridin-2-yl)-4-[3-methoxy-4-(2-methyl-1H-imidazol-1-yl)phenoxy]benzenesulfonamide], the IC50 was 5500 nM.

With `COc1cc(Oc2ccc(S(=O)(=O)Nc3ccc(F)cn3)cc2C#N)ccc1-n1cccn1` [Example 579, 3-cyano-N-(5-fluoropyridin-2-yl)-4-[3-methoxy-4-(1H-pyrazol-1-yl)phenoxy]benzenesulfonamide], the concentration for half-maximal inhibition (IC50) is above 3000 nM.

Turning to `N#Cc1cc(S(=O)(=O)Nc2ccc(F)cn2)ccc1Oc1ccccc1-c1nnco1` [Example 580, 3-cyano-N-(5-fluoropyridin-2-yl)-4-[2-(1,3,4-oxadiazol-2-yl)phenoxy]benzenesulfonamide], the IC50 was 6900 nM.

Turning to `N#Cc1cc(S(=O)(=O)Nc2ccc(F)cn2)ccc1Oc1ccc(-c2cocn2)cc1` [Example 581, 3-cyano-N-(5-fluoropyridin-2-yl)-4-[4-(1,3-oxazol-4-yl)phenoxy]benzenesulfonamide], the half-inhibitory concentration (IC50) is above 3000 nM.

Turning to `N#Cc1cc(S(=O)(=O)Nc2ncc(I)s2)ccc1Oc1ccc(Cl)cc1-c1cn[nH]c1` [Example 582, 4-[4-Chloro-2-(1H-pyrazol-4-yl)phenoxy]-3-cyano-N-(5-iodo-1,3-thiazol-2-yl)benzenesulfonamide], the 50% inhibitory concentration (IC50) was 34 nM.

For `N#Cc1cc(S(=O)(=O)Nc2ncc(Cl)s2)ccc1Oc1ccc(Cl)cc1-c1cn[nH]c1N` [Example 583, 4-[2-(5-Amino-1H-pyrazol-4-yl)-4-chlorophenoxy]-N-(5-chloro-1,3-thiazol-2-yl)-3-cyanobenzenesulfonamide], the IC50 was 13 nM.

With `N#Cc1cc(S(=O)(=O)Nc2ncc(Cl)s2)ccc1Oc1ccc(F)cc1-c1ccnc(N)c1` [Example 584, 4-[2-(2-Aminopyridin-4-yl)-4-fluorophenoxy]-N-(5-chloro-1,3-thiazol-2-yl)-3-cyanobenzenesulfonamide], the IC50 is 97 nM.

`N#Cc1cc(S(=O)(=O)Nc2ncc(Cl)s2)ccc1Oc1ccc(Cl)cc1-c1ccnc(CO)c1` [Example 586, 4-{4-Chloro-2-[2-(hydroxymethyl)pyridin-4-yl]phenoxy}-N-(5-chloro-1,3-thiazol-2-yl)-3-cyanobenzenesulfonamide]: the concentration for half-maximal inhibition (IC50) is 140 nM.

Turning to `N#Cc1cc(S(=O)(=O)Nc2ncc(Cl)s2)ccc1Oc1ccc(F)cc1-c1ccc(N)nc1` [Example 587, 4-[2-(6-Aminopyridin-3-yl)-4-fluorophenoxy]-N-(5-chloro-1,3-thiazol-2-yl)-3-cyanobenzenesulfonamide], the IC50 was 200 nM.

In the case of `N#Cc1cc(S(=O)(=O)Nc2ncc(Cl)s2)ccc1Oc1ccc(Cl)cc1C1COC1` [Example 588, 4-(4-Chloro-2-oxetan-3-ylphenoxy)-N-(5-chloro-1,3-thiazol-2-yl)-3-cyanobenzenesulfonamide], the concentration for half-maximal inhibition (IC50) was 120 nM.

As for `N#Cc1cc(S(=O)(=O)Nc2ncc(Cl)s2)ccc1Oc1ccc(F)cc1-c1ccn[nH]1` [Example 589, N-(5-Chloro-1,3-thiazol-2-yl)-3-cyano-4-[4-fluoro-2-(1H-pyrazol-5-yl)phenoxy]benzenesulfonamide], the 50% inhibitory concentration (IC50) was 510 nM.

For the compound `N#Cc1cc(S(=O)(=O)Nc2ncc(Cl)s2)ccc1Oc1ccc(C(F)(F)F)cc1-c1cn[nH]c1` [Example 590, N-(5-Chloro-1,3-thiazol-2-yl)-3-cyano-4-[2-(1H-pyrazol-4-yl)-4-(trifluoromethyl)phenoxy]benzenesulfonamide], the 50% inhibitory concentration (IC50) was 53 nM.

As to `N#Cc1cc(S(=O)(=O)Nc2ncc(Cl)s2)ccc1Oc1ccc(OC(F)(F)F)cc1-c1cn[nH]c1` [Example 591, N-(5-Chloro-1,3-thiazol-2-yl)-3-cyano-4-[2-(1H-pyrazol-4-yl)-4-(trifluoromethoxy)phenoxy]benzenesulfonamide], the concentration for half-maximal inhibition (IC50) was 73 nM.

Regarding `N#Cc1cc(S(=O)(=O)Nc2ncc(Cl)s2)ccc1Oc1ccc(Cl)cc1C1CCNCC1` [Example 593, 4-(4-Chloro-2-piperidin-4-ylphenoxy)-N-(5-chloro-1,3-thiazol-2-yl)-3-cyanobenzenesulfonamide], the half-inhibitory concentration (IC50) was 35 nM.

`N#Cc1cc(S(=O)(=O)Nc2ncc(Cl)s2)ccc1Oc1ccc(Cl)cc1C1CNC1` [Example 594, 4-(2-Azetidin-3-yl-4-chlorophenoxy)-N-(5-chloro-1,3-thiazol-2-yl)-3-cyanobenzenesulfonamide]: the IC50 was 160 nM.

Regarding `N#Cc1cc(S(=O)(=O)Nc2ncc(Cl)s2)ccc1Oc1ccc(Cl)cc1-c1ccnn1C(F)F` [Example 595, 4-{4-Chloro-2-[1-(difluoromethyl)-1H-pyrazol-5-yl]phenoxy}-N-(5-chloro-1,3-thiazol-2-yl)-3-cyanobenzenesulfonamide], the 50% inhibitory concentration (IC50) is 80 nM.

Regarding `Cn1nccc1-c1cc(F)ccc1Oc1ccc(S(=O)(=O)Nc2ncc(Cl)s2)cc1C#N` [Example 596, N-(5-Chloro-1,3-thiazol-2-yl)-3-cyano-4-[4-fluoro-2-(1-methyl-1H-pyrazol-5-yl)phenoxy]benzenesulfonamide], the IC50 is 79 nM.

For the compound `Cn1nccc1-c1cc(Cl)ccc1Oc1ccc(S(=O)(=O)Nc2ncc(Cl)s2)cc1C#N` [Example 597, 4-[4-Chloro-2-(1-methyl-1H-pyrazol-5-yl)phenoxy]-N-(5-chloro-1,3-thiazol-2-yl)-3-cyanobenzenesulfonamide], the IC50 is 20 nM.

As to `N#Cc1cc(S(=O)(=O)Nc2cscn2)ccc1Oc1ccc(C(F)(F)F)cc1-c1cn[nH]c1` [Example 598, 3-cyano-4-[2-(1H-pyrazol-4-yl)-4-(trifluoromethyl)phenoxy]-N-1,3-thiazol-4-ylbenzenesulfonamide], the half-maximal inhibitory concentration (IC50) is 230 nM.

Regarding `N#Cc1cc(S(=O)(=O)Nc2cscn2)ccc1Oc1ccc(OC(F)(F)F)cc1-c1cn[nH]c1` [Example 599, 3-cyano-4-[2-(1H-pyrazol-4-yl)-4-(trifluoromethoxy)phenoxy]-N-1,3-thiazol-4-ylbenzenesulfonamide], the IC50 was 300 nM.

`Cc1scnc1NS(=O)(=O)c1ccc(Oc2ccccc2-c2ccccc2)c(C#N)c1` [Example 600, 4-(biphenyl-2-yloxy)-3-cyano-N-(5-methyl-1,3-thiazol-4-yl)benzenesulfonamide]: the IC50 is 15000 nM.
